According to ChEMBL document CHEMBL1150535, “Acyclic NK-1 antagonists: 2-benzhydryl-2-aminoethyl ethers” (Bioorg Med Chem Lett, 1994):

How the values were obtained:
Substance-P receptor = Substance-P receptor (Homo sapiens, UniProt P25103); assay: Binding affinity towards human Tachykinin receptor 1 expressed in CHO cells by the displacement of [125 I] substance P; type: cell-based
[1] = biological target: Voltage-gated L-type calcium channel (Homo sapiens, UniProt Q13936+Q13698+Q01668+O60840); assay: Antagonistic activity at L-type calcium channel by displacement of [3H]diltiazem and enhanced [3H]nitrendipine binding; type: protein assay

Chain of Substance-P receptor (P25103 whole entry): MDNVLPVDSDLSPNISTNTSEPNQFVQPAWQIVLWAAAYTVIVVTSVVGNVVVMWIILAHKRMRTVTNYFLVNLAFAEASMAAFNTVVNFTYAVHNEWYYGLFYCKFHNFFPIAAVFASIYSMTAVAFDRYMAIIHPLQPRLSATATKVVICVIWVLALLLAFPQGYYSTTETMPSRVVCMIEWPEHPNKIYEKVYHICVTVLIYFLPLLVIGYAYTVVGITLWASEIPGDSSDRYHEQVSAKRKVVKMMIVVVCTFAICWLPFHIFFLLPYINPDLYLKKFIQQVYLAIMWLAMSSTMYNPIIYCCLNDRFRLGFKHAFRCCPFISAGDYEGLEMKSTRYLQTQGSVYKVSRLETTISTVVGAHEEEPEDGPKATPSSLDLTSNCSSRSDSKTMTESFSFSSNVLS

| Compound | IC50 (Substance-P receptor) [nM] | IC50 [1] [µM] |
| --- | --- | --- |
| NC(COCc1cccc(Cl)c1)C(c1ccccc1)c1ccccc1 (stereo not given) | 75 | – |
| NC(=O)CNC(COCc1cc(C(F)(F)F)cc(C(F)(F)F)c1)C(c1ccccc1)c1ccccc1 (stereo not given) | 0.85 | – |
| NC(COCc1cc(Br)cc(Br)c1)C(c1ccccc1)c1ccccc1 (stereo not given) | 13.3 | – |
| Cc1cc(C)cc(COCC(NCC2CC2)C(c2ccccc2)c2ccccc2)c1 (stereo not given) | 93 | – |
| Cc1cc(C)cc(COCC(NCc2ccccc2)C(c2ccccc2)c2ccccc2)c1 (stereo not given) | 82 | – |
| Cc1cc(C)cc(COCC(NCC(N)=O)C(c2ccccc2)c2ccccc2)c1 (stereo not given) | 2.2 | 5.5 |
| NC(COCc1cccc(I)c1)C(c1ccccc1)c1ccccc1 (stereo not given) | 77 | – |
| Cc1ccc(C)c(COCC(N)C(c2ccccc2)c2ccccc2)c1 (stereo not given) | 150 | – |
| NC(=O)CN[C@H](COCc1cc(C(F)(F)F)cc(C(F)(F)F)c1)C(c1ccccc1)c1ccccc1 | 0.53 | 1.67 |
| NC(COCc1ccccc1)C(c1ccccc1)c1ccccc1 (stereo not given) | 367 | – |
| Cc1cc(Br)cc(COCC(N)C(c2ccccc2)c2ccccc2)c1 (stereo not given) | 9.7 | – |
| NC(COCc1cc(Cl)cc(Cl)c1)C(c1ccccc1)c1ccccc1 (stereo not given) | 11.3 | – |
| COc1ccccc1CN[C@H]1C2CCN(CC2)[C@H]1C(c1ccccc1)c1ccccc1 [CP-96345] | – | 0.24 |

Next, values leading:

| IC50 (Substance-P receptor) [nM] | IC50 [1] [µM] | Compound |
| --- | --- | --- |
| 14 | – | Cc1cc(C)cc(COC[C@@H](C(c2ccccc2)c2ccccc2)N(C)C)c1 |
| 6.8 | – | CNC(COCc1cc(C)cc(C)c1)C(c1ccccc1)c1ccccc1 (stereo not given) |
| 55 | – | Cc1cc(C)cc(COCC(NC(C)C)C(c2ccccc2)c2ccccc2)c1 (stereo not given) |
| 4.4 | – | Cc1cc(C)cc(COCC(C(c2ccccc2)c2ccccc2)N(C)C)c1 (stereo not given) |
| 5.5 | 0.98 | Cc1cc(C)cc(COC[C@H](C(c2ccccc2)c2ccccc2)N(C)C)c1 |
| 11 | – | Cc1cc(C)cc(COCC(NC=O)C(c2ccccc2)c2ccccc2)c1 (stereo not given) |
| 17 | – | Cc1cc(C)cc(COCC(O)C(c2ccccc2)c2ccccc2)c1 (stereo not given) |
| 12.7 | – | CCNC(COCc1cc(C)cc(C)c1)C(c1ccccc1)c1ccccc1 (stereo not given) |
| 21 | – | CC(=O)NC(COCc1cc(C)cc(C)c1)C(c1ccccc1)c1ccccc1 (stereo not given) |
